Test results: PubChem BioAssay (NCI)
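Where inhibition never reached the appropriate level, the endpoint shown equals the highest concentration tested. Otherwise, values were interpolated linearly from a five-concentration, 48-hour dose response in 96-well plates. Here, GI50 denotes the concentration required for 50% inhibition of growth. TGI denotes the concentration required for complete inhibition of growth.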

Legend:
Experiment in all cases: DTP human tumour cell line panel, 48 h
OVCAR-5 ovarian = test system: OVCAR-5 ovarian
HCT-15 colon = test system: HCT-15 colon
SF-539 CNS = test system: SF-539 CNS
SK-MEL-28 melanoma = test system: SK-MEL-28 melanoma
HOP-92 NSCLC = test system: HOP-92 NSCLC
MDA-MB-231 breast = test system: MDA-MB-231 breast
786-0 renal = test system: 786-0 renal
TK-10 renal = test system: TK-10 renal
NCI/ADR-RES ovarian = test system: NCI/ADR-RES ovarian
SW-620 colon = test system: SW-620 colon
CAKI-1 renal = test system: CAKI-1 renal
A498 renal = test system: A498 renal
UO-31 renal = test system: UO-31 renal
UACC-257 melanoma = test system: UACC-257 melanoma
M14 melanoma = test system: M14 melanoma
ACHN renal = test system: ACHN renal
NCI-H23 lung = test system: NCI-H23 lung
COLO 205 colon = test system: COLO 205 colon
SNB-75 CNS = test system: SNB-75 CNS
KM12 colon = test system: KM12 colon
MOLT-4 leukemia = test system: MOLT-4 leukemia
OVCAR-4 ovarian = test system: OVCAR-4 ovarian
SF-295 CNS = test system: SF-295 CNS
NCI-H226 lung = test system: NCI-H226 lung
MALME-3M melanoma = test system: MALME-3M melanoma
DU-145 prostate = test system: DU-145 prostate
SK-MEL-5 melanoma = test system: SK-MEL-5 melanoma
PC-3 prostate = test system: PC-3 prostate
HOP-62 NSCLC = test system: HOP-62 NSCLC
BT-549 breast = test system: BT-549 breast
SK-OV-3 ovarian = test system: SK-OV-3 ovarian
MDA-MB-435 = test system: MDA-MB-435
U251 CNS = test system: U251 CNS
NCI-H522 lung = test system: NCI-H522 lung
SK-MEL-2 melanoma = test system: SK-MEL-2 melanoma
RXF 393 renal = test system: RXF 393 renal

Structure (SMILES): Clc1ccc2c(N/N=C/c3c[nH]c4ccccc34)ccnc2c1
- GI50 (OVCAR-5 ovarian): 1630 nM
- TGI (OVCAR-5 ovarian): 3040 nM
- GI50 (HCT-15 colon): 373 nM
- TGI (HCT-15 colon): 1490 nM
- GI50 (SF-539 CNS): 1720 nM
- TGI (SF-539 CNS): 3120 nM
- GI50 (SK-MEL-28 melanoma): 1810 nM
- TGI (SK-MEL-28 melanoma): 3230 nM
- GI50 (HOP-92 NSCLC): 539 nM
- TGI (HOP-92 NSCLC): 2020 nM
- GI50 (MDA-MB-231 breast): 1650 nM
- TGI (MDA-MB-231 breast): 3170 nM
- GI50 (786-0 renal): 1410 nM
- TGI (786-0 renal): 2770 nM
- GI50 (TK-10 renal): 2090 nM
- TGI (TK-10 renal): 3570 nM
- GI50 (NCI/ADR-RES ovarian): 1930 nM
- TGI (NCI/ADR-RES ovarian): 4450 nM
- GI50 (SW-620 colon): 793 nM
- TGI (SW-620 colon): 2200 nM
- GI50 (CAKI-1 renal): 1680 nM
- TGI (CAKI-1 renal): 3100 nM
- GI50 (A498 renal): 1510 nM
- TGI (A498 renal): 2870 nM
- GI50 (UO-31 renal): 1320 nM
- TGI (UO-31 renal): 2660 nM
- GI50 (UACC-257 melanoma): 1650 nM
- TGI (UACC-257 melanoma): 3040 nM
- GI50 (M14 melanoma): 1730 nM
- TGI (M14 melanoma): 3180 nM
- GI50 (ACHN renal): 1870 nM
- TGI (ACHN renal): 3270 nM
- GI50 (NCI-H23 lung): 1620 nM
- TGI (NCI-H23 lung): 3170 nM
- GI50 (COLO 205 colon): 1790 nM
- TGI (COLO 205 colon): 3420 nM
- GI50 (SNB-75 CNS): 1380 nM
- TGI (SNB-75 CNS): 2720 nM
- GI50 (KM12 colon): 1790 nM
- TGI (KM12 colon): 3330 nM
- GI50 (MOLT-4 leukemia): 1050 nM
- TGI (MOLT-4 leukemia): 3830 nM
- GI50 (OVCAR-4 ovarian): 1830 nM
- TGI (OVCAR-4 ovarian): 3630 nM
- GI50 (SF-295 CNS): 1820 nM
- TGI (SF-295 CNS): 3250 nM
- GI50 (NCI-H226 lung): 1880 nM
- TGI (NCI-H226 lung): 4540 nM
- GI50 (MALME-3M melanoma): 1760 nM
- TGI (MALME-3M melanoma): 3270 nM
- GI50 (DU-145 prostate): 1530 nM
- TGI (DU-145 prostate): 2930 nM
- GI50 (SK-MEL-5 melanoma): 1750 nM
- TGI (SK-MEL-5 melanoma): 3140 nM
- GI50 (PC-3 prostate): 1550 nM
- TGI (PC-3 prostate): 2950 nM
- GI50 (HOP-62 NSCLC): 1670 nM
- TGI (HOP-62 NSCLC): 3250 nM
- GI50 (BT-549 breast): 1550 nM
- TGI (BT-549 breast): 2910 nM
- GI50 (SK-OV-3 ovarian): 1670 nM
- TGI (SK-OV-3 ovarian): 3130 nM
- GI50 (MDA-MB-435): 1750 nM
- TGI (MDA-MB-435): 3180 nM
- GI50 (U251 CNS): 837 nM
- TGI (U251 CNS): 2110 nM
- GI50 (NCI-H522 lung): 1770 nM
- TGI (NCI-H522 lung): 3320 nM
- GI50 (SK-MEL-2 melanoma): 1830 nM
- TGI (SK-MEL-2 melanoma): 3350 nM
- GI50 (RXF 393 renal): 1470 nM
- TGI (RXF 393 renal): 2830 nM
